For test [1], the target named is T1, KMT9 (Homo sapiens, UniProt Q9Y5N5).
T1 sequence (Q9Y5N5 1-214): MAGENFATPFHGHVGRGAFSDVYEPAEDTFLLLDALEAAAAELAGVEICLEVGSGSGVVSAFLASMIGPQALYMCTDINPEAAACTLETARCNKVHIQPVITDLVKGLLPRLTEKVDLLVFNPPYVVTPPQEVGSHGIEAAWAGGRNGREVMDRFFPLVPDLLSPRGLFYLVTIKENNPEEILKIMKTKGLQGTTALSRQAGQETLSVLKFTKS
T1 sequence (Q9UI30 1-125 partner): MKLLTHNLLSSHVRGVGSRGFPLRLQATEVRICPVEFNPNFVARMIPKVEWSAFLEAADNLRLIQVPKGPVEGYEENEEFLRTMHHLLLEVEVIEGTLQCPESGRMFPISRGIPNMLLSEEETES
In words: KMT9 methyltransferase inhibition assay (3H-SAM, ETF1 substrate).
Protocol: The assay was carried out in 0.5 mL Eppendorf tubes in duplicates. Assay buffer consisted of 50 mM BTP, 1 mM MgCl2, 1 mM DTT and 0,01% Triton-X100 at a pH of 8.5 (adjusted using 1 M HCl and 1 M NaOH). 20X inhibitor stock (in DMSO), 2× enzyme stock and 4× substrate mix (both in assay buffer) were prepared. The substrate mix consisted of Tritium-labeled S-adenosylmethionine (3H-SAM), S-adenosylmethionine (SAM) and eukaryotic peptide chain release factor subunit1 (, residues 140–275) (ETF1). Final assay concentrations were set to 25 nM KMT9, 0.3 μM 3H-SAM, 0.7 μM SAM and 5 μM ETF1. […] Five μL of 4× substrate mix was added to initiate the reaction. The final reaction volume was 20 μL. For the positive control, the compound was replaced by DMSO; for the negative control, the compound was replaced by DMSO and KMT9 was replaced by assay buffer. The reaction mix was incubated in an Eppendorf thermomixer comfort at 30 °C for 2 h, shaking at 300 rpm. The reaction was quenched using 5 μL 50% trichloroacetic acid (TCA) and incubated at 25 °C for 5 min. Twenty-two μL of the mixture was transferred into 96-well MultiScreenHTS FB filter plates (Merck KGaA, Darmstadt, Germany) and washed four times with 10% TCA and two times with 100% ethanol. The plate was dried overnight, the filters were transferred into individual 6 mL Pony Vials (PerkinElmer Inc., Waltham, MA, USA) and incubated in 3 mL of Ultima Gold scintillation cocktail (PerkinElmer Inc., Waltham, MA, USA) for 30 min. The scintillation signal was measured for 3× 1 min using TriCarb 2910 TR (PerkinElmer) scintillation counter in 3H CPM mode (LL: 0, UL: 18.6).
Inhibition was calculated using the following formula: Inhibition[%]=(1−xc−xpos/xpos−xneg)×100
With xc: signal of compound, xpos: mean signal of positive control, xneg: mean signal of negative control. Data fitting was carried out by GraphPad 7.0 using nonlinear fit ([Inhibitor] vs response – variable slope (four parameters)).

In test [2] the target is T1, KMT9. The experiment in a line: Microscale thermophoresis (MST) binding assay. As for the experimental part: To determine the binding affinity of the compound and KMT9, microscale thermophoresis (MST) analysis was performed with a NanoTemper Monolith NT.115 instrument (NanoTemper Technologies GmbH). KMT9 was labeled with a RED-Tris-NTA labeling kit (NanoTemper Technologies GmbH) based on the manufacturer’s instructions. Buffer including 25 mM HEPES (pH 7.5), 100 mM NaCl, 1 mM DTT and 0.05% Tween was used for the reaction buffer. Varying concentrations of compounds were titrated against His-tag labeled KMT9 proteins (20 nM). Samples were loaded into standard Capillaries (NanoTemper Technologies GmbH) and MST measurements were performed using 40% MST power and 100% LED power. For each set of binding experiments, MST measurement was carried out with Binding Affinity module in MO. Control program under Nano-RED excitation. Data sets were processed with the MO.Affinity Analysis software (NanoTemper Technologies GmbH).

Test [3] concerns the target T1, KMT9. In words: Thermal shift assay (SyproOrange). The class given is binding. Particulars: read-out: ΔTm. As to the method:
The assay was carried out in 96-well Hard-Shell PCR plates (Bio-Rad Laboratories Inc.). […] Final assay concentrations were set to 500 μM of compound 8, 2 μM KMT9 and 5× SO. One μL of 20× compound, 4 μL of assay buffer, 10 μL of 2× KMT9 and 5 μL of 4× SO were pipetted. For the no-compound control, 20× inhibitor stock was replaced by DMSO. The final volume was 20 μL. The plate was spun down at 700 rpm for 1 min using a Hettich UNIVERSAL 320 centrifuge and incubated at 25 °C, shaking at 600 rpm. After incubation, the plate was spun down for 1 min at 700 rpm and measurement was conducted using a CFX96 Touch Real-Time PCR Detection System (Bio-Rad Laboratories Inc.). The plate was equilibrated at 20 °C for 4 min and then heated stepwise at a rate of 1 °C per 15 s until 95 °C. After every step, fluorescence was measured in FRET mode. Calculation of melting points was conducted by a Boltzman sigmoidal model using GraphPad Prism 7.0.

The mark [4] stands for this setting: MST, binding to KMT9, read-out: Kd.
The mark [5] stands for this setting: thermal shift, 2 μM KMT9, 500 μM compound.

Read-outs that look alike come from different tables or passages of the source.

For `NCCCN(C[C@H]1C=CCN1)C[C@H]1O[C@@H](n2cnc3c(N)ncnc32)[C@H](O)[C@@H]1O` [compound 4f, (2R,3R,4S,5R)-2-(6-Amino-9H-purin-9-yl)-5-(((3-aminopropyl)(((R)-2,5-dihydro-1H-pyrrol-2-yl)methyl)amino)methyl)tetrahydrofuran-3,4-diol], 253 µM corresponded to half-maximal inhibition against KMT9 [1] (IC50). Moreover, the Kd at KMT9 [2] is more than 500 µM. Moreover, the ΔTm at 500 µM on KMT9 [3] is -0.52 °C.

Take `Nc1ncnc2c1ncn2[C@@H]1O[C@H](CN(CC[C@H](N)C(=O)O)CC[C@H](N)c2ccccc2)[C@@H](O)[C@H]1O` [compound 2a]: the half-inhibitory concentration (IC50) against KMT9 [1] stood at 3 µM. The compound also registered a Kd at KMT9 [2] of 15 µM. Besides, the shift in melting temperature (ΔTm) at 500 µM at KMT9 [3] is 10.6 °C.

Take `Nc1ncnc2c1ncn2[C@@H]1O[C@H](CSCC[C@H](N)C(=O)O)[C@@H](O)[C@H]1O` [SAH, S-adenosyl-L-homocysteine, reference compound]: the Kd at KMT9 [2] (setting [4]) was 10.9 µM.

`Nc1ncnc2c1ncn2[C@@H]1O[C@H](CN(CCCNCc2ccccc2)CC[C@H](N)C(=O)O)[C@@H](O)[C@H]1O` [compound 5a, (S)-2-Amino-4-((((2R,3S,4R,5R)-5-(6-amino-9H-purin-9-yl)-3,4-dihydroxytetrahydrofuran-2-yl)methyl)(3-(benzylamino)propyl)amino)butanoic acid] had an IC50 on KMT9 [1] of 0.1 µM. The compound also came in with a Kd on KMT9 [2] of 0.04 µM. For the same compound, the ΔTm at 500 µM at KMT9 [3] was determined as 19.6 °C.

`Nc1ncnc2c1ncn2[C@@H]1O[C@H](CN(CC[C@H](N)C(=O)O)CC[C@H](N)C(=O)O)[C@@H](O)[C@H]1O` [compound 1, (2S,2’S)-4,4’-((((2R,3S,4R,5R)-5-(6-Amino-9H-purin-9-yl)-3,4-dihydroxytetrahydrofuran-2-yl)methyl)azanediyl)bis(2-aminobutanoic Acid)]: the dissociation constant (Kd) at KMT9 [2] (setting [4]) is 6.8 µM.

Regarding `Nc1ncnc2c1ncn2[C@@H]1O[C@H](CN(CCCNCCc2ccccc2)CC[C@H](N)C(=O)O)[C@@H](O)[C@H]1O` [compound 5b, (S)-2-Amino-4-((((2R,3S,4R,5R)-5-(6-amino-9H-purin-9-yl)-3,4-dihydroxytetrahydrofuran-2-Yyl)methyl)(3-(phenethylamino)propyl)amino)butanoic acid], the IC50 at KMT9 [1] came to 0.034 µM. The Kd at KMT9 [2] came to 0.01 µM. At KMT9 [3], the ΔTm at 500 µM was determined as 20.9 °C.

Regarding `CN(C)CCCN(CC[C@H](N)C(=O)O)C[C@H]1O[C@@H](n2cnc3c(N)ncnc32)[C@H](O)[C@@H]1O` [compound 3b, reference compound], the half-maximal inhibitory concentration (IC50) against KMT9 [1] stood at 6 µM. For the same compound, the Kd at KMT9 [2] (setting [4]) was found to be 1 µM. On KMT9 [2] (vs compound 2d), the “Reduction of potency compared to compound 2d” value was approximately 100 fold. Also, the ΔTm at 500 µM on KMT9 [3] was found to be 9.55 °C.

As to `Nc1ncnc2c1ncn2[C@@H]1O[C@H](CN(CCCNCCCc2ccccc2)CC[C@H](N)C(=O)O)[C@@H](O)[C@H]1O` [compound 5c, (S)-2-Amino-4-((((2R,3S,4R,5R)-5-(6-amino-9H-purin-9-yl)-3,4-dihydroxytetrahydro-furan-2-yl)methyl)(3-((3-phenylpropyl)amino)propyl)amino)butanoic acid], the half-inhibitory concentration (IC50) on KMT9 [1] came out at 0.064 µM. This compound also had a Kd on KMT9 [2] of 0.02 µM. The thermal shift (ΔTm) at 500 µM on KMT9 [3] was determined as 21.3 °C.

`NCCCN(CCC(N)C(F)(F)F)C[C@H]1O[C@@H](n2cnc3c(N)ncnc32)[C@H](O)[C@@H]1O` (stereo partly drawn) [compound 4c, (2R,3S,4R,5R)-2-(((3-Amino-4,4,4-trifluorobutyl)(3-aminopropyl)amino)methyl)-5-(6-amino-9H-purin-9-yl)tetrahydrofuran-3,4-diol] displayed a half-inhibitory concentration (IC50) against KMT9 [1] of 500 µM. For the same compound, the dissociation constant (Kd) on KMT9 [2] (setting [4]) is more than 500 µM. Also, at KMT9 [3] (setting [5]), the ΔTm at 500 µM was 3.43 °C.

`NCCCN(CCC(N)C(F)F)C[C@H]1O[C@@H](n2cnc3c(N)ncnc32)[C@H](O)[C@@H]1O` (stereo partly drawn) [compound 4b, (2R,3S,4R,5R)-2-(((3-Amino-4,4-difluorobutyl)(3-aminopropyl)amino)methyl)-5-(6-amino-9H-purin-9-yl)tetrahydrofuran-3,4-diol] returned an IC50 on KMT9 [1] of 200 µM. For the same compound, binding on KMT9 [2] was put at a Kd of 100 µM. Moreover, the ΔTm at 500 µM on KMT9 [3] stood at 2.86 °C.

For the compound `CNc1ncnc2c1ccn2C1CC(CN(CCCOCCc2ccc(Oc3ccc(Cl)cc3)c(F)c2)CCC(N)C(=O)O)C(O)C1O` [compound 7b-N, (S)-2-Amino-4-((3-(4-(4-chlorophenoxy)-3-fluorophenethoxy)propyl)(((1R,2R,3S,4R)-2,3-dihydroxy-4-(4-(methylamino)-7H-pyrrolo[2,3-d]pyrimidin-7-yl)cyclopentyl)methyl)amino)butanoic Acid], on KMT9 [2] (Kd ratio vs compound 7b), the “Decrease of binding affinity compared to compound 7b” value is “more than 1000 fold”. Also, the Kd at KMT9 [2] (setting [4]) was approximately 56 µM.

`CNc1ncnc2c1ccn2[C@@H]1C[C@H](CN(CCCNCCc2ccc(Oc3ccccc3)cc2)CC[C@H](N)C(=O)O)[C@@H](O)[C@H]1O` [compound 7a, (S)-2-Amino-4-((((1R,2R,3S,4R)-2,3-dihydroxy-4-(4-(methylamino)-7H-pyrrolo[2,3-d]pyrimidin-7-yl)cyclopentyl)methyl)(3-((4-phenoxyphenethyl)amino)propyl)amino) Butanoic acid]: the half-maximal inhibitory concentration (IC50) at KMT9 [1] was 0.6 µM. In addition, on KMT9 [2] (setting [4]), the Kd is 0.07 µM. Also, the ΔTm at 500 µM on KMT9 [3] (setting [5]) came to 17.5 °C.

`C[C@@H](CN(CCCN)C[C@H]1O[C@@H](n2cnc3c(N)ncnc32)[C@H](O)[C@@H]1O)N1CCC(O)CC1` [compound 4e, (2R,3R,4S,5R)-2-(6-Amino-9H-purin-9-yl)-5-(((3-aminopropyl)((s)-2-(4-hydroxypiperidin-1-yl)propyl)amino)methyl)tetrahydrofuran-3,4-diol]: the IC50 against KMT9 [1] was more than 500 µM. For the same compound, at KMT9 [2] (setting [4]), the Kd is 50 µM. Besides, the thermal shift (ΔTm) at 500 µM at KMT9 [3] was 2.78 °C.

Usually IC50 stands for the point on the concentration scale where inhibition reaches its midpoint. Read a low IC50 as higher potency. What is called Kd is the constant that tells how readily two partners part at equilibrium. A word on the ΔTm: it is the shift of the melting midpoint relative to a reference.

Values taken from publication PMC12257510, “Structure-Guided Design of a KMT9 Inhibitor Prodrug with Cellular Activity” (Journal of Medicinal Chemistry, 2025).
